From PubChem BioAssay (NCI)
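A five-concentration, 48-hour dose response in 96-well plates underlies each endpoint, interpolated linearly between surrounding concentrations. TGI is the concentration that stops growth completely.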 Where a SMILES comes first, the peptide text is derived from it. Bridges are numbered along the chain shown (N, C = ends). [ ]: non-standard residue; d: D form. Aib = CC(C)(N)C(=O)O; βAla = NCCC(=O)O

Key:
Assay in all cases: inhibition of tumour cell growth, NCI panel, 48 h
[1] = system: SF-295 CNS
[2] = system: SK-MEL-5 melanoma
[3] = system: MOLT-4 leukemia
[4] = system: HOP-92 NSCLC
[5] = system: NCI-H226 lung
[6] = system: TK-10 renal
[7] = system: RPMI-8226 leukemia
[8] = system: HCT-116 colon
[9] = system: SNB-19 CNS
[10] = system: MDA-MB-231 breast
[11] = system: T-47D breast
[12] = system: OVCAR-8 ovarian
[13] = system: SF-539 CNS
[14] = system: EKVX NSCLC
[15] = system: NCI-H460 lung
[16] = system: HCC-2998 colon

| SMILES | TGI [1] | TGI [2] | TGI [3] | TGI [4] | TGI [5] | TGI [6] | TGI [7] | TGI [8] | TGI [9] | TGI [10] | TGI [11] | TGI [12] | TGI [13] | TGI [14] | TGI [15] | TGI [16] |
| --- | --- | --- | --- | --- | --- | --- | --- | --- | --- | --- | --- | --- | --- | --- | --- | --- |
| CCOc1cc(C2CC(c3ccc(NS(=O)(=O)c4cc([N+](=O)[O-])ccc4C)cc3)=NN2S(=O)(=O)c2cc([N+](=O)[O-])ccc2C)ccc1O (configuration not stated) | > 100 µM | 64.8 µM | > 100 µM | 60.7 µM | > 100 µM | > 100 µM | > 100 µM | > 100 µM | > 100 µM | > 100 µM | 65.1 µM | > 100 µM | > 100 µM | 82.2 µM | – | – |
| CC1(C)NC(=O)C(NC(=O)C(N)CC(=O)O)CCCCNC(=O)CCNC1=O (configuration not stated) (H-DK[Aib][βAla]; lactam 2-C; configuration not given here) | > 100 µM | > 100 µM | > 100 µM | > 100 µM | > 100 µM | > 100 µM | > 100 µM | > 100 µM | > 100 µM | > 100 µM | > 100 µM | > 100 µM | > 100 µM | > 100 µM | > 100 µM | – |
| Cc1ccc(O)c(C(c2cccc(C(c3cc(C)ccc3O)c3cc(C)ccc3O)c2)c2cc(C)ccc2O)c1 | 3.91 µM | 3.93 µM | 18.8 µM | – | 3.31 µM | 3.25 µM | 3.31 µM | 3.34 µM | 3.34 µM | 2.83 µM | 4.45 µM | 3.87 µM | 3.35 µM | 3.63 µM | – | 3.48 µM |
| C=CCN(c1cc(OC)c(NC(C)=O)cc1[N+](=O)[O-])S(C)(=O)=O | > 100 µM | > 100 µM | > 100 µM | – | > 100 µM | > 100 µM | > 100 µM | > 100 µM | > 100 µM | > 100 µM | > 100 µM | > 100 µM | – | > 100 µM | > 100 µM | > 100 µM |
| Cc1ccc(CC2(C(=O)O)Cc3ccc(C)cc3C2)cc1 (configuration not stated) | > 100 µM | > 100 µM | > 100 µM | – | > 100 µM | > 100 µM | > 100 µM | > 100 µM | > 100 µM | > 100 µM | > 100 µM | > 100 µM | > 100 µM | > 100 µM | > 100 µM | > 100 µM |
| N#CC12C(=O)NC(=O)C1(C#N)C1C=CC2CC1 (configuration not stated) | > 100 µM | > 100 µM | > 100 µM | – | > 100 µM | > 100 µM | > 100 µM | > 100 µM | > 100 µM | – | > 100 µM | > 100 µM | > 100 µM | > 100 µM | – | – |
| Cc1c(C)c2ccc(OCC(O)COC(C)C)c(C)c2oc1=O (configuration not stated) | > 100 µM | 30.2 µM | > 10 µM | > 100 µM | – | 62.3 µM | 44.4 µM | 36 µM | > 100 µM | – | > 100 µM | > 100 µM | – | > 100 µM | 34.6 µM | 43.4 µM |
| C[C@H](C1CC(C)(O)C(C)(O)C(O)O1)[C@H]1CC[C@H]2[C@@H]3[C@@H]4O[C@@H]4[C@@]4(O)CC=CC(=O)[C@]4(C)[C@H]3CC[C@]12C (some centres not stated) | > 50 µM | > 50 µM | > 50 µM | > 50 µM | > 50 µM | > 50 µM | > 50 µM | > 50 µM | > 50 µM | > 50 µM | > 50 µM | > 50 µM | – | > 50 µM | > 50 µM | > 50 µM |
